pIC50: −log10 of the molar value. Read-outs that look alike come from different tables or passages of the source.
Legend:
[1] = system: HCV replicon cells Huh 9B (genotype 1b); assay: 1b Replicon Assay (luciferase readout); assay type: cell-based; conditions: Hepatitis C virus, Huh 9B replicon cells, 72 h, luciferase activity; for pIC50: read-out: HCV IC50 1b Replicon; for IC50: read-out: pIC50 1b Replicon (converted)
in vitro = in vitro ADME, Canine; conditions: dog, MDCK
Protocol: Cells used: MDCK (Madin-Darby Canine Kidney) cells, ATCC collection # CCL-34, are used to model the intestinal barrier. Cell culture conditions: cells were cultured at 37° C. in a 5% CO2 environment and split twice a week on seeding at 4×10^5 cells/flask (75 cm^2) on day 1 and 2×10^5 cells/flask on day 4. The culture medium consisted of MEM+Earle's-L Glutamine (Gibco #21090-022) supplemented with 10% Australian Fetal Calf Serum (Sigma #F6178), 2 mM L-Glutamine (Gibco #25030-024) and 1× Non Essential Amino Acids (Gibco #11140-035)
On day 1, a 24-well plate (Sarstedt, #83.1836.300) was filled with individual 3 lam pore membrane inserts (Millipore, #PITP 012 50). Each plate allows the testing of a cocktail of 3 control compounds and 11 test compounds in duplicate. The wells (outside the inserts) were filled with 500 μl of culture medium.
A flask of cells was trypsinised and a cell count carried out. Cells were diluted to 1.2×10^5 cells/ml (1×10^5 cells/cm^2) and 500 μl dispensed in each insert on the 24-well plate. The plate was incubated at 37° C. in a 5% CO2 environment for 48 hours.
On day 3, the culture medium was removed from the wells, then the inserts and is replaced with fresh culture medium in the wells, then the inserts (500111 per well and insert) The plate was incubated at 37° C. in a 5% CO2 environment for 24 hours.
On day 4, the controls cocktail and test compounds solutions were made up in HBSS buffer (Hank's Balanced Salt Solution, Gibco #14025-050) at 1011M. The final controls and test compounds concentration in the assay was 10 μM, and DMSO concentration maintained at 0.1% (0.3% for the controls cocktail). The controls cocktail was made up of Atenolol (Sigma # A-7655), Dexamethasone (Sigma #D-1756) and Propranolol (Sigma # P-0884).
A 24-well plate was filled with 500 μl of HBSS buffer per well (assay plate) The culture medium was removed from the wells and inserts. The inserts were washed three times with approximately 500 μl of HBSS buffer. The inserts were transferred to the assay plate. Controls cocktail and test compounds solutions were dispensed inside the inserts (500 μl per insert), in duplicates. The assay plate was incubated at 37° C. in a 5% CO2 environment for 2 hours.
After 2 hours, the inserts were removed from the assay plate and transferred into a new 24-well plate (wash plate) The assay plate containing the receiver solutions was left aside for later sampling. To measure the mass balance, 150 μl were sampled from each insert (donor solutions) and dispensed into 150 μl of HPLC-grade Acetonitrile (Fisher Scientific) containing an internal standard and 0.05% formic acid.
The donor solutions were aspirated and discarded from each insert, and the inserts washed once with approximately 500 μl of HBSS buffer. A 24-well plate was filled with 500 μl of HBSS buffer per well (monolayer integrity plate) A Lucifer Yellow (Sigma #L0144) solution was made up at 1001.1M in HBSS buffer. The empty inserts were transferred into the monolayer integrity plate and filled with 500 μl of the Lucifer Yellow solution to determine the cell monolayers integrity and leftover of the solution was kept in a fridge. The plate was incubated at 37° C. in a 5% CO2 environment for 2 hours.
In the meantime, 150 μl were sampled from the assay plate (receiver solutions) and dispensed into 150 μl of HPLC-grade Acetonitrile containing an internal standard and 0.05% formic acid. A calibration curve was made for each mix of compounds (as appropriate depending on compounds molecular weights) A 10 μM mix of compounds in HBSS buffer was diluted 1:1 in HPLC-grade Acetonitrile containing an internal standard and 0.05% formic acid. A 1:1 mix of HBSS buffer and HPLC-grade Acetonitrile containing an internal standard and 0.05% formic acid was made up and used to make up the calibration curve (2 fold dilutions), with concentrations ranging from 10 μM to 0.078 μM. […]

## CC(C)(C)OC(=O)N[C@@H](C(=O)N1CCC[C@H]1c1ncc(-c2ccc(-c3ccc(C(=O)Nc4ccc(CN5CCS(=O)(=O)CC5)cc4)cc3)cc2)[nH]1)c1ccccc1 [Example 2, Tert-butyl N-[(1R)-2-[(2S)-2-[5-[4-[4-[[4-[(1,1-dioxo-1,4-thiazinan-4-yl)methyl]phenyl]carbamoyl]phenyl]phenyl]-1H-imidazol-2-yl]pyrrolidin-1-yl]-2-oxo-1-phenyl-ethyl]carbamate]
[1]
  pIC50: 10.70
  IC50: 0.0204 nM
In vitro
  Papp at 2 h, 10 µM: 0.2 ×10⁻⁶ cm/s

## COC(=O)N[C@H](C(=O)N1CCC[C@H]1c1ncc(-c2ccc(-c3ccc(C(=O)Nc4ccc(CN5CCS(=O)(=O)CC5)cc4)cc3)cc2)[nH]1)C(C)C [Example 3, Methyl N-[(1S)-1-[(2S)-2-[5-[4-[4-[[4-[(1,1-dioxo-1,4-thiazinan-4-yl)methyl]phenyl]carbamoyl]phenyl]phenyl]-1H-imidazol-2-yl]pyrrolidine-1-carbonyl]-2-methyl-propyl]carbamate]
[1]
  pIC50: 9.47
  IC50: 0.339 nM
In vitro
  Papp at 2 h, 10 µM: 4.1 ×10⁻⁶ cm/s

## COC(=O)N[C@H](C(=O)N1CCC[C@H]1c1ncc(-c2ccc(-c3ccc(C(=O)Nc4ccc(CN5CCS(=O)(=O)CC5)cc4)cc3)cc2)[nH]1)C(C)(C)C [Example 5, Methyl N-[(1S)-1-[(2S)-2-[5-[4-[4-[[4-[(1,1-dioxo-1,4-thiazinan-4-yl)methyl]phenyl]carbamoyl]phenyl]phenyl]-1H-imidazol-2-yl]pyrrolidine-1-carbonyl]-2,2-dimethyl-propyl]carbamate]
[1]
  pIC50: 9.14
  IC50: 0.741 nM
In vitro
  Papp at 2 h, 10 µM: 2 ×10⁻⁶ cm/s

## COC(=O)N[C@H](C(=O)N1CCC[C@H]1c1ncc(-c2ccc(-c3ccc(C(=O)Nc4ccc(CN5CCS(=O)(=O)CC5)cc4)cc3)cc2)[nH]1)c1ccccc1 [Example 6, Methyl N-[(1S)-2-[(2S)-2-[5-[4-[4-[[4-[(1,1-dioxo-1,4-thiazinan-4-yl)methyl]phenyl]carbamoyl]phenyl]phenyl]-1H-imidazol-2-yl]pyrrolidin-1-yl]-2-oxo-1-phenyl-ethyl]carbamate]
[1]
  pIC50: 10.40
  IC50: 0.0417 nM
In vitro
  Papp at 2 h, 10 µM: 0.1 ×10⁻⁶ cm/s

## COC(=O)N[C@@H](C(=O)N1CCC[C@H]1c1ncc(-c2ccc(-c3ccc(C(=O)Nc4ccc(CN5CCS(=O)(=O)CC5)cc4)cc3)cc2)[nH]1)c1ccccc1 [Example 7, Methyl N-[(1R)-2-[(2S)-2-[5-[4-[4-[[4-[(1,1-dioxo-1,4-thiazinan-4-yl)methyl]phenyl]carbamoyl]phenyl]phenyl]-1H-imidazol-2-yl]pyrrolidin-1-yl]-2-oxo-1-phenyl-ethyl]carbamate]
[1]
  pIC50: 10.30
  IC50: 0.0468 nM
In vitro
  Papp at 2 h, 10 µM: 0.4 ×10⁻⁶ cm/s

## CCN(CC)[C@@H](C(=O)N1CCC[C@H]1c1ncc(-c2ccc(-c3ccc(C(=O)Nc4ccc(CN5CCS(=O)(=O)CC5)cc4)cc3)cc2)[nH]1)c1ccccc1 [Example 8, 4-[4-[2-[(2S)-1-[(2R)-2-(diethylamino)-2-phenyl-acetyl]pyrrolidin-2-yl]-1H-imidazol-5-yl]phenyl]-N-[4-[(1,1-dioxo-1,4-thiazinan-4-yl)methyl]phenyl]benzamide]
[1]
  pIC50: 10.30
  IC50: 0.0468 nM
In vitro
  Papp at 2 h, 10 µM: 1.2 ×10⁻⁶ cm/s

## CN(C)[C@@H](C(=O)N1CCC[C@H]1c1ncc(-c2ccc(-c3ccc(C(=O)Nc4ccc(CN5CCS(=O)(=O)CC5)cc4)cc3)cc2)[nH]1)c1ccccc1 [Example 9, 4-[4-[2-[(2S)-1-[(2R)-2-(dimethylamino)-2-phenyl-acetyl]pyrrolidin-2-yl]-1H-imidazol-5-yl]phenyl]-N-[4-[(1,1-dioxo-1,4-thiazinan-4-yl)methyl]phenyl]benzamide]
[1]
  pIC50: 10.00
  IC50: 0.1 nM
In vitro
  Papp at 2 h, 10 µM: 0.9 ×10⁻⁶ cm/s

## COC(=O)N[C@@H](CC(C)C)C(=O)N1CCC[C@H]1c1ncc(-c2ccc(-c3ccc(C(=O)Nc4ccc(CN5CCS(=O)(=O)CC5)cc4)cc3)cc2)[nH]1 [Example 14, Methyl N-[(1S)-1-[(2S)-2-[5-[4-[4-[[4-[(1,1-dioxo-1,4-thiazinan-4-yl)methyl]phenyl]carbamoyl]phenyl]phenyl]-1H-imidazol-2-yl]pyrrolidine-1-carbonyl]-3-methyl-butyl]carbamate]
[1]
  pIC50: 9.44
  IC50: 0.355 nM
In vitro
  Papp at 2 h, 10 µM: 1.2 ×10⁻⁶ cm/s

## CC[C@H](C)[C@H](NC(=O)OC)C(=O)N1CCC[C@H]1c1ncc(-c2ccc(-c3ccc(C(=O)Nc4ccc(CN5CCS(=O)(=O)CC5)cc4)cc3)cc2)[nH]1 [Example 16, Methyl N-[(1S,2S)-1-[(2S)-2-[5-[4-[4-[[4-[(1,1-dioxo-1,4-thiazinan-4-yl)methyl]phenyl]carbamoyl]phenyl]phenyl]-1H-imidazol-2-yl]pyrrolidine-1-carbonyl]-2-methyl-butyl]carbamate]
[1]
  pIC50: 9.89
  IC50: 0.132 nM
In vitro
  Papp at 2 h, 10 µM: 1 ×10⁻⁶ cm/s

## COC(=O)N[C@H](C(=O)N1CCC[C@@H]1c1ncc(-c2ccc(-c3ccc(C(=O)Nc4ccc(CN5CCS(=O)(=O)CC5)cc4)cc3)cc2)[nH]1)C(C)C [Example 20, Methyl N-[(1S)-1-[(2R)-2-[5-[4-[4-[[4-[(1,1-dioxo-1,4-thiazinan-4-yl)methyl]phenyl]carbamoyl]phenyl]phenyl]-1H-imidazol-2-yl]pyrrolidine-1-carbonyl]-2-methyl-propyl]carbamate]
[1]
  pIC50: 6.50
  IC50: 316 nM
In vitro
  Papp at 2 h, 10 µM: 0.4 ×10⁻⁶ cm/s

## CCCS(=O)(=O)N1CCN(Cc2ccc(NC(=O)c3ccc(-c4ccc(-c5cnc([C@@H]6CCCN6C(=O)[C@@H](NC(=O)OC)C(C)C)[nH]5)cc4)cc3)cc2)CC1 [Example 40, Methyl N-[(1S)-2-methyl-1-[(2S)-2-[5-[4-[4-[[4-[(4-propylsulfonylpiperazin-1-yl)methyl]phenyl]carbamoyl]phenyl]phenyl]-1H-imidazol-2-yl]pyrrolidine-1-carbonyl]propyl]carbamate]
[1]
  pIC50: 10.00
  IC50: 0.1 nM
In vitro
  Papp at 2 h, 10 µM: 0.7 ×10⁻⁶ cm/s

## COC(=O)N[C@H](C(=O)N1CCOC[C@H]1c1ncc(-c2ccc(-c3ccc(C(=O)Nc4ccc(CN5CCS(=O)(=O)CC5)cc4)cc3)cc2)[nH]1)c1ccccc1 [Example 47, Methyl N-[(1S)-2-[(3R)-3-[5-[4-[4-[[4-[(1,1-dioxo-1,4-thiazinan-4-yl)methyl]phenyl]carbamoyl]phenyl]phenyl]-1H-imidazol-2-yl]morpholin-4-yl]-2-oxo-1-phenyl-ethyl]carbamate]
[1]
  pIC50: 9.55
  IC50: 0.275 nM
In vitro
  Papp at 2 h, 10 µM: 0.1 ×10⁻⁶ cm/s

## COC(=O)N[C@H](C(=O)N1CCC[C@H]1c1ncc(-c2ccc(-c3ccc(C(=O)Nc4ccc(CN5CCS(=O)(=O)CC5)cc4)cc3)c(C)c2)[nH]1)C(C)C [Example 54, Methyl N-[(1S)-1-[(2S)-2-[5-[4-[4-[[4-[(1,1-dioxo-1,4-thiazinan-4-yl)methyl]phenyl]carbamoyl]phenyl]-3-methyl-phenyl]-1H-imidazol-2-yl]pyrrolidine-1-carbonyl]-2-methyl-propyl]carbamate]
[1]
  pIC50: 9.68
  IC50: 0.209 nM
In vitro
  Papp at 2 h, 10 µM: 6 ×10⁻⁶ cm/s

Reference: patent US20100215618A1, “NOVEL COMPOUNDS - 644” (Arrow Therapeutics Limited, priority 2009, published 2010)
